Some test systems named below: SK-OV-3 ovarian; A498 renal; CCRF-CEM leukemia; MOLT-4 leukemia; SNB-75 CNS; RPMI-8226 leukemia; NCI/ADR-RES ovarian; UO-31 renal; MDA-N; NCI-H522 lung; OVCAR-3 ovarian.
Test in all cases: NCI anticancer screen, dose series, 48 h

“And” between values parts separate entries of the source, which are not always exact repeats. Equal entries are not always repeated.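 These data come from cells grown in 96-well plates and exposed to compound for 48 hours at five concentrations. Here, GI50 denotes the concentration required for 50% inhibition of growth. TGI is the concentration that stops growth completely.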 Some results are limits rather than exact numbers.

For the compound `N#CCCC(CC#N)N1CCN(CCO)CC1` (configuration not stated), the TGI in the assay with SK-OV-3 ovarian, with A498 renal, in the assay with CCRF-CEM leukemia, in the assay on MOLT-4 leukemia, with SNB-75 CNS and with RPMI-8226 leukemia was more than 100 µM each time. Further, the TGI with NCI/ADR-RES ovarian and in the assay with UO-31 renal was more than 100 µM each time.

As to `Cc1cc2c(c3oc(C(O)(CO)C4CO4)cc(=O)c13)C(=O)c1c(O)cccc1C2=O` (configuration not stated), the TGI in the assay with SK-OV-3 ovarian was 0.00671 µM and 0.00173 µM; in the assay with A498 renal, 0.00403 µM; in the assay with CCRF-CEM leukemia, 0.000111 µM; in the assay on MOLT-4 leukemia it was more than 37.5 µM; in the assay with SNB-75 CNS, 0.00395 µM and 0.000596 µM; in the assay on MDA-N, 0.00443 µM and 0.00515 µM. The compound also showed a TGI in the assay with NCI-H522 lung of 0.00323 µM. Also, the GI50 is 0.00375 µM in the assay on A498 renal, more than 37.5 µM in the assay with MOLT-4 leukemia and 0.00375 µM in the assay on MDA-N.

On to `O=[N+]([O-])c1ccc(NC2OCC(O)C(O)C2O)cc1` (configuration not stated), for which the TGI in the assay with SK-OV-3 ovarian, in the assay with A498 renal, in the assay with OVCAR-3 ovarian, in the assay on CCRF-CEM leukemia, in the assay on MOLT-4 leukemia and with SNB-75 CNS was more than 100 µM in each case. Besides, the TGI in the assay on RPMI-8226 leukemia, in the assay with UO-31 renal and in the assay with NCI-H522 lung was more than 100 µM each time.

Regarding `COc1ccc(CNc2nc(NCc3ccc(OC)cc3)nc(Nc3ccccc3)n2)cc1`, the TGI in the assay with SK-OV-3 ovarian was more than 100 µM; with A498 renal, more than 100 µM; with OVCAR-3 ovarian it was 6.94 µM; in the assay with MOLT-4 leukemia, more than 100 µM; in the assay on SNB-75 CNS it was more than 100 µM; in the assay with RPMI-8226 leukemia it was 40.3 µM. Further, the TGI in the assay with NCI/ADR-RES ovarian, in the assay with UO-31 renal and in the assay on NCI-H522 lung was more than 100 µM each time.

Consider `COc1ccc(/C(Cl)=C(\C=O)c2ccc(F)cc2)cc1`, for which the TGI was 77.1 µM with SK-OV-3 ovarian; 52.7 µM in the assay with A498 renal; 58 µM with OVCAR-3 ovarian; 18.7 µM with CCRF-CEM leukemia; 50.9 µM with MOLT-4 leukemia; 8.33 µM in the assay on SNB-75 CNS. Also, the TGI was determined as 44.6 µM in the assay on RPMI-8226 leukemia, 42.2 µM in the assay with UO-31 renal and 24.8 µM in the assay on NCI-H522 lung.

As for `O=[N+]([O-])c1ccc(/C=C/c2ccc(N=Nc3ccc(/C=C/c4ccc([N+](=O)[O-])cc4S(=O)(=O)O)c(S(=O)(=O)O)c3)cc2S(=O)(=O)O)c(S(=O)(=O)O)c1`, the TGI with SK-OV-3 ovarian, with A498 renal, in the assay with OVCAR-3 ovarian, in the assay with CCRF-CEM leukemia, with MOLT-4 leukemia and with SNB-75 CNS was more than 100 µM in each case. In addition, the TGI with NCI/ADR-RES ovarian, with UO-31 renal and in the assay with NCI-H522 lung was more than 100 µM each time.

In the case of `COC1=CC(=O)C(O)=C(C[C@@]2(C)[C@@H]3CCC[C@H](COC(=O)CCCCCNC(=O)OC(C)(C)C)[C@@]3(C)CC[C@@H]2C)C1=O`, the TGI was more than 10 µM with SK-OV-3 ovarian; more than 10 µM in the assay on A498 renal; more than 10 µM in the assay with OVCAR-3 ovarian; 5.29 µM in the assay on CCRF-CEM leukemia; more than 10 µM with MOLT-4 leukemia; more than 10 µM with SNB-75 CNS. The TGI with RPMI-8226 leukemia, in the assay on MDA-N, in the assay with UO-31 renal and with NCI-H522 lung was more than 10 µM in each case.

As for `c1ccc2c(c1)CCc1c-2n(CCN2CCCCC2)c2ccccc12`, the TGI in the assay on SK-OV-3 ovarian was 49.7 µM; with OVCAR-3 ovarian, 31.1 µM; with CCRF-CEM leukemia, more than 100 µM; in the assay on MOLT-4 leukemia, 44.8 µM; in the assay on SNB-75 CNS it was 49.1 µM; with RPMI-8226 leukemia, 40.3 µM. In addition, the TGI in the assay with NCI/ADR-RES ovarian is 33.1 µM; in the assay on UO-31 renal, 23.7 µM; in the assay on NCI-H522 lung, 27.1 µM.

Consider `COC1(OC)N=C(N)C2(C#N)C(C)CC(=O)N(N(C)C)C12C#N` (configuration not stated), for which the TGI in the assay with SK-OV-3 ovarian, in the assay on A498 renal, with CCRF-CEM leukemia, in the assay on MOLT-4 leukemia, with SNB-75 CNS and in the assay on RPMI-8226 leukemia was more than 100 µM each time. Further, the TGI in the assay on NCI/ADR-RES ovarian, in the assay on UO-31 renal and with NCI-H522 lung was more than 100 µM throughout.

Consider `CCSc1nc2sc(C)c(C)c2c(=O)n1-c1ccc(C(=O)O)cc1`, for which the TGI in the assay on SK-OV-3 ovarian is more than 100 µM; with A498 renal, more than 100 µM; in the assay with OVCAR-3 ovarian, 74.4 µM; in the assay with CCRF-CEM leukemia, more than 100 µM; with MOLT-4 leukemia it was more than 100 µM; in the assay on SNB-75 CNS it was 70 µM. Also, the TGI was more than 100 µM with RPMI-8226 leukemia, more than 100 µM with UO-31 renal and 76.3 µM in the assay on NCI-H522 lung.

`CCOC(=O)CCC(NC(=O)c1ccc(CNc2nc3cc(N)cc(N)c3nc2-c2ccccc2)cc1)C(=O)OCC` (configuration not stated): the TGI is more than 100 µM in the assay on SK-OV-3 ovarian; more than 100 µM in the assay with A498 renal; more than 100 µM in the assay on OVCAR-3 ovarian; 9.43 µM with MOLT-4 leukemia; more than 100 µM with SNB-75 CNS; more than 100 µM in the assay on NCI/ADR-RES ovarian. Also, the TGI in the assay with UO-31 renal and in the assay on NCI-H522 lung was more than 100 µM in each case.

With `C=C(C)C1Cc2c(cc(O)c3c(=O)c4ccccc4n(C)c23)O1` (configuration not stated), the TGI with SK-OV-3 ovarian was 84.6 µM; in the assay on A498 renal, 92.6 µM; in the assay on CCRF-CEM leukemia, more than 100 µM; in the assay on MOLT-4 leukemia, more than 100 µM; with SNB-75 CNS, 37.2 µM; with RPMI-8226 leukemia it was more than 100 µM. In addition, in the assay on NCI-H522 lung, the TGI is 66.1 µM.

Consider `NC(=O)c1n[nH]n(-c2ccccc2)c1=O`, for which the TGI with SK-OV-3 ovarian, in the assay with A498 renal, in the assay with OVCAR-3 ovarian, with CCRF-CEM leukemia, in the assay on MOLT-4 leukemia and in the assay with SNB-75 CNS was more than 100 µM throughout. Moreover, the TGI in the assay on RPMI-8226 leukemia, with NCI/ADR-RES ovarian, with UO-31 renal and in the assay on NCI-H522 lung was more than 100 µM in each case.

As to `CC(SC(=S)N1CCCCC1)C(=O)Nc1nnc(-c2ccc(Cl)cc2)o1` (configuration not stated), the TGI in the assay with SK-OV-3 ovarian is more than 100 µM; in the assay on A498 renal it was 88.6 µM; with OVCAR-3 ovarian, 64.2 µM; in the assay with SNB-75 CNS, more than 100 µM; with RPMI-8226 leukemia, 51.5 µM; in the assay on NCI/ADR-RES ovarian, more than 100 µM. In the assay on UO-31 renal, the TGI amounted to 54 µM.

With `CC1=C(C(=O)OCCO[N+](=O)[O-])C(c2ccccc2C(F)(F)F)C(C(=O)OC(C)C)=C(C)N1` (configuration not stated), the TGI is more than 100 µM in the assay with SK-OV-3 ovarian; 60.6 µM with A498 renal; 29.2 µM in the assay on OVCAR-3 ovarian; more than 100 µM in the assay with CCRF-CEM leukemia; more than 100 µM in the assay on MOLT-4 leukemia; more than 100 µM in the assay with RPMI-8226 leukemia. Moreover, the TGI was determined as 57.8 µM with NCI/ADR-RES ovarian, 33.6 µM with UO-31 renal and 44.4 µM in the assay on NCI-H522 lung.

For the origin of these results see PubChem BioAssay (NCI).
